# Literature values, collected in patent US8003670B2, “Aminoalkoxy aryl sulfonamide compounds and their use as 5-HT6 ligands” (Suven Life Sciences Limited, priority 2007, dated 2011).
# System: animal models for schizophrenia
# Settings: literature (Pouzet et al. 2002); cited from earlier work
smiles,measurement,value
"COc1ccc(NS(=O)(=O)c2sc3ccc(Cl)cc3c2C)cc1N1CCNCC1 [SB-271046, 5-Chloro-N-(4-methoxy-3-piperazin-1-ylphenyl)-3-methyl-2-benzothiophenesulfonamide]",Activity in animal tests related to positive or negative symptoms of schizophrenia,inactive
